Results as given in patent US12590118B2, “Salt and crystal form of steroid derivative regulator” (Shanghai Hansoh Biomedical Co., Ltd., priority 2019, dated 2026).
In brackets after ≈: the same amount, converted by molar mass.

Tests used:
CD-1 mice = test: PTZ-induced epilepsy model in mice; type: in vivo; settings: 3 mpk p.o., PTZ 120 mg/kg s.c., 30 min observation
Experimental: The PTZ-induced epilepsy model in CD-1 mice was established, and the antiepileptic effect of the compounds of Example 2, Example 40, Example 41 and Example 52 was evaluated using this model.
50 male CD-1 mice were purchased from Beijing Vital River Laboratory Animal Technology Co. Ltd. The test animals were adapted at the animal room in the third building of Shanghai ChemPartner Co., Ltd for 7 days before the experiment. The average body weight of the animals on the test day was 32.2±0.2 grams. Feeding environment: 5 animals/cage, room temperature 23±2° C., 12/12 hours of light and dark cycle, free access to food and water.
The mice were randomly grouped for the experiment on the test day.
Compounds of Example 2, Example 40, Example 41 and Example 52 (prepared by the applicant). The test compounds were stored in a refrigerator at 4° C.
4.2.3 Test Equipments • 1 ml sterile disposable syringe with needle (purchased from Zhejiang Kangdelai Medical Devices Co., Ltd.) • Pipette: Eppendorf Research Plus (100-1000 μL) • Vortex mixer: Kylin-Bell Vortex 5 • Ultrasonic instrument: JL-360 ultrasonic cleaner • Balance: METTLER TOLEDO XS204 precision balance • Balance: METTLER TOLEDO XS6002S electronic balance • Plexiglass box: 25 cm length*15 cm width*15 cm height with one opaque side wall, custom made by Suzhou Fengshi Laboratory Animal Equipment Co., Ltd • 3-channel timer: Oregon/Model NO. WB-388. 4.2.4 Test Animal Grouping • 1) Vehicle/PTZ: 0.5% CMC-Na+1% Tween-80 (10 ml/kg, p.o.), administered 0.5 hr before the PTZ administration; PTZ ([…], s.c.), administered before the experiment; • 2) 3 mg/kg of the compounds of Examples/PTZ: the compounds of Example 2, Example 40, Example 41 and Example 52 (3 mg/kg, 10 ml/kg, p.o.), administered 0.5 hr before the PTZ administration; PTZ ([…], s.c.), administered before the experiment. 4.3 Experimental Procedures 4.3.1 Solvent Formulation • 1) 0.5% CMC-Na+1% Tween-80 (administration volume: 10 mL/kg):
1 g of sodium carboxymethyl cellulose was precisely weighed and added to a 250 mL solvent bottle, then 150 mL of double-distilled water was added. The mixture was stirred at room temperature for 4 hours with a magnetic stirrer to obtain a uniform and clear solution. 2 mL of Tween-80 was slowly added, and the mixture was stirred at room temperature for 3 hours to obtain a uniform and clear solution. The solution was slowly transferred to a 200 mL volumetric flask, and double distilled water was added to the constant volume of 200 mL. The solution was transferred to a 250 mL solvent bottle, and stirred for 1 hour with a magnetic stirrer to obtain a uniform and clear solution. • 2) 30% hydroxypropyl-p-cyclodextrin:
248 mg of PTZ was precisely weighed and added to a 40 mL brown flask, then 20.667 mL of physiological saline was added. The mixture was mixed by vortex for 2 minutes, and treated by ultrasound at room temperature for 2 minutes to obtain a uniform and clear solution (concentration: 12 mg/mL). • 2) 0.3 mg/mL of the compounds of Example 5 or Example 23 (dose: 3 mg/kg; administration volume: 10 mL/kg): […]
4.4 Adaptation to the Environment
The mice were randomly grouped, marked and weighed; 10 mice per group. The test compound was administered orally at an administration volume of 10 mL/kg 30-60 minutes before the PTZ administration.
PTZ (120 mg/kg) was administrated subcutaneously before the experiment observation, and this time point was recorded as the observation start point; after the administration of PTZ, the animal was immediately placed in the observation box and observed for 30 minutes, and the followings were recorded: a) the incubation period of the first clonic seizure, b) the incubation period of the first generalized tonic seizure, c) the number of clonic seizures, d) the number of generalized tonic seizures, e) the time when the animal died.
All measurement data were expressed as Mean±SEM, and analysed with Prism 6.0 statistical software.

[1] = Solubility experiment (thermodynamic solubility at 37° C.); type: physicochemical; settings: for solubility at 24 h: 37 °C, thermodynamic from solid
Experimental: The solubility of the free base and salt of the compound in water, Fasted State Simulated Gastric Fluid (FaSGF), Fasted State Simulated Intestinal Fluid (FaSSIF) and Fed State Simulated Intestinal Fluid (FeSSIF) was compared, so as to provide a basis for evaluating the druggability of the crystal form and salt.
About 2 to 3 mg of crystal forms I, II and III of the free base of Example 40 were weighed, suspended in 1 mL of Fasted State Simulated Gastric Fluid (FaSSGF), Fasted State Simulated Intestinal Fluid (FaSSIF), Fed State Simulated Intestinal Fluid (FeSSIF) and pure water respectively, and shaked for 24 hours. Thermodynamic solubility of the compound at 37° C. was determined using HPLC by external standard method.

[2] = Competitive experiment of different crystal forms of the free base; type: physicochemical; settings: 40° C.
Experimental: The stability among crystal forms I, II and III of the free base of Example 40 was investigated, so as to select the stable crystal form.
Multiple portions of about 20 mg of crystal forms I, II and III of the free base of Example 40 were accurately weighed, and mixed in pairs in equal amounts. Methyl tert-butyl ether and n-heptane were added respectively, and the resulting mixture was stirred at 40° C. for 7 days. The mixture was centrifuged at high speed, the supernatant was removed, and the resulting solid precipitate was vacuum dried in an oven at 40° C. and characterized by XRPD.

[3] = Solid stability experiment (total impurities); type: physicochemical
Experimental: The physicochemical stability of candidate crystal forms I, II and III of the free base of Example 40 under influencing factors such as high temperature, high humidity and strong light was investigated, so as to provide a basis for the production and storage of the compound.
The related substance change of the free base was calculated by chromatographic peak area normalization method.

## C[C@@]1(O)CC[C@H]2[C@H](CC[C@@H]3[C@@H]2CC[C@@]2(C)[C@H]3[C@@H]3C[C@@H]3[C@@H]2C(=O)Cn2ccc(C#N)n2)C1 [Example 2, 1-(2-((2R,4aS,4bR,6aS,7S,7aS,8aR,8bR,8cR,10aR)-2-Hydroxy-2,6a-dimethyloctadecahydrocyclopropa[4,5]cyclopenta[1,2-a]phenanthren-7-yl)-2-oxoethyl)-1H-pyrazole-3-carbonitrile]
CD-1 mice
  Incubation period of the clonic seizure (sec) Mean ± SEM: 902.9 ± 200.8 s
  Incubation period of the generalized tonic seizure (sec) Mean: 1736.0 ± 63.2 s
  Mortality rate (%): 10%
  Number of clonic seizures Mean: 1.3 ± 0.3
  Number of generalized tonic seizures Mean: 0.1 ± 0.1
  Time when the animal died (sec) Mean: 1739.8 ± 60.2 s

## C[C@@H]1C[C@H](C(=O)Cn2ccc(C#N)n2)[C@@]2(C)CC[C@H]3[C@@H](CC[C@@H]4C[C@](C)(O)CC[C@@H]43)[C@H]12 [Example 40, 1-(2-((3R,5R,8R,9R,10S,13S,14S,15R,17S)-3-Hydroxy-3,13,15-trimethylhexadecahydro-1H-cyclopenta[a]phenanthren-17-yl)-2-oxoethyl)-1H-pyrazole-3-carbonitrile]
CD-1 mice
  Incubation period of the clonic seizure (sec) Mean ± SEM: 1308.1 ± 170.1 s
  Incubation period of the generalized tonic seizure (sec) Mean: 1800.0 ± 0.0 s
  Mortality rate (%): 0%
  Number of clonic seizures Mean: 0.5 ± 0.2
  Number of generalized tonic seizures Mean: 0.0 ± 0.0
  Time when the animal died (sec) Mean: 1800.0 ± 0.0 s

## C[C@@H]1C[C@H](C(=O)Cn2ccc(C#N)n2)[C@@]2(C)CC[C@H]3[C@@H](CC[C@@H]4C[C@](C)(O)CC[C@@H]43)[C@H]12 [Crystal form I, 1-(2-((3R,5R,8R,9R,10S,13S,14S,15R,17S)-3-Hydroxy-3,13,15-trimethylhexadecahydro-1H-cyclopenta[a]phenanthren-17-yl)-2-oxoethyl)-1H-pyrazole-3-carbonitrile]
[1]; FaSSGF (Fasted State Simulated Gastric Fluid), fassgf or other biorelevant, FaSSGF
  solubility at 24 h: < 1 µg/mL
[1]; FaSSIF (Fasted State Simulated Intestinal Fluid), fassif
  solubility at 24 h: 3.26 µg/mL (≈ 7.7 µM)
[1]; FeSSIF (Fed State Simulated Intestinal Fluid), fessif
  solubility at 24 h: 18.2 µg/mL (≈ 43 µM)
[1]; four media
  solubility compared among the three crystal forms (in words): the lowest
[1]; pure water, water
  solubility at 24 h: < 1 µg/mL
[2]
  solubility in n-heptane (in words): almost insoluble
[3]; 50° C./75% RH Open, 5 d
  Total impurities (%): 0.56%
[3]; 50° C./75% RH Open, 10 d
  Total impurities (%): 0.59%
[3]; 60° C. Sealed, 5 d
  Total impurities (%): 0.55%
[3]; 60° C. Sealed, 10 d
  Total impurities (%): 0.56%
[3]; Initial sample, 0 d
  Total impurities (%): 0.59%
[3]; Light 5k lux Sealed, 10 d
  Total impurities (%): 0.56%
[3]; Light 5k lux Sealed, column printed 10 d
  Total impurities (%): 0.57%
[3]; RT/90% RH Open, 5 d
  Total impurities (%): 0.56%
[3]; RT/90% RH Open, column printed 5 d
  Total impurities (%): 0.56%
[3]; high temperature, high humidity and light for 10 days
  change of impurities (in words): the impurities did not increase
